Counter-ions that a name gives are not always drawn.
Key:
mouse TAAR1 = mouse TAAR1 (Mus musculus (Mouse), UniProt Q923Y8); assay: Radioligand binding assay on mouse TAAR1; details: membranes of HEK-293 cells stably expressing mouse TAAR1; first value of cell mouse/rat
Description: (§1) Construction of TAAR Expression Plasmids and Stably Transfected Cell Lines
(§2) For the construction of expression plasmids the coding sequences of human, rat and mouse TAAR 1 were amplified from genomic DNA essentially as described by Lindemann et al.. The Expand High Fidelity PCR System (Roche Diagnostics) was used with 1.5 mM Mg^2+ and purified PCR products were cloned into pCR2.1-TOPO cloning vector (Invitrogen) following the instructions of the manufacturer. PCR products were subcloned into the pIRESneo2 vector (BD Clontech, Palo Alto, Calif.), and expression vectors were sequence verified before introduction in cell lines.
(§3) HEK293 cells (ATCC # CRL-1573) were cultured essentially as described by Lindemann et al. (2005). For the generation of stably transfected cell lines HEK293 cells were transfected with the pIRESneo2 expression plasmids containing the TAAR coding sequences (described above) with Lipofectamine 2000 (Invitrogen) according to the instructions of the manufacturer, and 24 hrs post transfection the culture medium was supplemented with 1 mg/ml G418 (Sigma, Buchs, Switzerland). After a culture period of about 10 d clones were isolated, expanded and tested for responsiveness to trace amines (all compounds purchased from Sigma) with the cAMP Biotrak Enzyme immunoassay (EIA) System (Amersham) following the non-acetylation EIA procedure provided by the manufacturer.
Radioligand Binding Assay on Mouse TAAR1
(§4) Membrane Preparation and Radioligand Binding.
HEK-293 cells stably expressing mouse TAAR1 were maintained at 37° C. and 5% CO2 in DMEM high glucose medium, containing fetal calf serum (10%, heat inactivated for 30 min at 56° C.), penicillin/streptomycin (1%), and 375 μg/ml geneticin (Gibco). Cells were released from culture flasks using trypsin/EDTA, harvested, washed twice with ice-cold PBS (without Ca^2+ and Mg^2+), pelleted at 1,000 rpm for 5 min at 4° C., frozen and stored at −80° C. Frozen pellets were suspended in 20 ml HEPES-NaOH (20 mM, pH 7.4) containing 10 mM EDTA and homogenized with a Polytron (PT 6000, Kinematica) at 14,000 rpm for 20 s. The homogenate was centrifuged at 48,000×g for 30 min at 4° C. Subsequently, the supernatant was removed and discarded, and the pellet resuspended in 20 ml HEPES-NaOH (20 mM, pH 7.4) containing 0.1 mM EDTA using the Polytron (20 s at 14,000 rpm). This procedure was repeated and the final pellet resuspended in HEPES-NaOH containing 0.1 mM EDTA and homogenized using the Polytron. Typically, aliquots of 2 ml membrane portions were stored at −80° C. With each new membrane batch the dissociation constant (Kd) was determined via a saturation curve. The TAAR1 radioligand ^3[H]—(S)-4-[(ethyl-phenyl-amino)-methyl]-4,5-dihydro-oxazol-2-ylamine (described in WO 2008/098857) was used at a concentration equal to the calculated Kd value, that was usually around 0.7 nM, resulting in the binding of approximately 0.5% of the radioligand and a specific binding representing approximately 70% of the total binding. Nonspecific binding was defined as the amount of ^3[H]—(S)-4-[(ethyl-phenyl-amino)-methyl]-4,5-dihydro-oxazol-2-ylamine bound in the presence of 10 μM unlabeled ligand. All compounds were tested at a broad range of concentrations ([…]) in duplicates. […] The 96 deep well plates were incubated for 1 hr at 4° C. Incubations were terminated by rapid filtration through Unifilter-96 plates (Packard Instrument Company) and glass filters GF/C (Perkin Elmer) presoaked for 1 hr in polyethylenimine (0.3%) and washed 3 times with 1 ml of cold binding buffer. After addition of 45 μl of Microscint 40 (PerkinElmer) the Unifilter-96 plate was sealed and after 1 hr the radioactivity counted using a TopCount Microplate Scintillation Counter (Packard Instrument Company).

rat TAAR1 = rat TAAR1 (Rattus norvegicus (Rat), UniProt Q923Y9); assay: Radioligand binding assay on rat TAAR1; details: membranes of HEK-293 cells stably expressing rat TAAR1; second value of cell mouse/rat
Description: as §1, §2, §3
Radioligand Binding Assay on rat TAAR1
as §4
HEK-293 cells stably expressing rat TAAR1 were maintained at 37° C. and 5% CO2 in DMEM high glucose medium, containing fetal calf serum (10%, heat inactivated for 30 min at 56° C.), penicillin/streptomycin (1%), and 375 μg/ml geneticin (Gibco). Cells were released from culture flasks using trypsin/EDTA, harvested, washed twice with ice-cold PBS (without Ca^2+ and Mg^2+), pelleted at 1,000 rpm for 5 min at 4° C., frozen and stored at −80° C. Frozen pellets were suspended in 20 ml HEPES-NaOH (20 mM, pH 7.4) containing 10 mM EDTA and homogenized with a Polytron (PT 6000, Kinematica) at 14,000 rpm for 20 s. The homogenate was centrifuged at 48,000×g for 30 min at 4° C. Subsequently, the supernatant was removed and discarded, and the pellet resuspended in 20 ml HEPES-NaOH (20 mM, pH 7.4) containing 0.1 mM EDTA using the Polytron (20 s at 14,000 rpm). This procedure was repeated and the final pellet resuspended in HEPES-NaOH containing 0.1 mM EDTA and homogenized using the Polytron. Typically, aliquots of 2 ml membrane portions were stored at −80° C. With each new membrane batch the dissociation constant (Kd) was determined via a saturation curve.
Nonspecific binding was defined as the amount of ^3-[H]-(S)-4-[(ethyl-phenyl-amino)-methyl]-4,5-dihydro-oxazol-2-ylamine bound in the presence of 10 μM unlabeled ligand. All compounds were tested at a broad range of concentrations (10 pM to 10 μM) in duplicates. […] The 96 deep well plates were incubated for 1 hr at 4° C. Incubations were terminated by rapid filtration through Unifilter-96 plates (Packard Instrument Company) and glass filters GF/C (Perkin Elmer) presoaked for 1 hr in polyethylenimine (0.3%) and washed 3 times with 1 ml of cold binding buffer. After addition of 45 μl of Microscint 40 (PerkinElmer) the Unifilter-96 plate was sealed and after 1 hr the ratioactivity counted using a TopCount Microplate Scintillation Counter (Packard Instrument Company).

mouse TAAR1, sequence (Q923Y8 whole entry): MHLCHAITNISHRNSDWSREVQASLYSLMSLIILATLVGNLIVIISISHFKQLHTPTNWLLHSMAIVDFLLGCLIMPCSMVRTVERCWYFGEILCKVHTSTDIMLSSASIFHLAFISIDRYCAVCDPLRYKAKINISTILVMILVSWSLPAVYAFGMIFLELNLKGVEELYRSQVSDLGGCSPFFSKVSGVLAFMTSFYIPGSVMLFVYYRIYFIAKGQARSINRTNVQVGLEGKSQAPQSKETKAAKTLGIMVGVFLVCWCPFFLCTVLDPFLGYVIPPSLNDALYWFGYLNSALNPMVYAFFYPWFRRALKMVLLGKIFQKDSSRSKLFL
rat TAAR1, sequence (Q923Y9 whole entry): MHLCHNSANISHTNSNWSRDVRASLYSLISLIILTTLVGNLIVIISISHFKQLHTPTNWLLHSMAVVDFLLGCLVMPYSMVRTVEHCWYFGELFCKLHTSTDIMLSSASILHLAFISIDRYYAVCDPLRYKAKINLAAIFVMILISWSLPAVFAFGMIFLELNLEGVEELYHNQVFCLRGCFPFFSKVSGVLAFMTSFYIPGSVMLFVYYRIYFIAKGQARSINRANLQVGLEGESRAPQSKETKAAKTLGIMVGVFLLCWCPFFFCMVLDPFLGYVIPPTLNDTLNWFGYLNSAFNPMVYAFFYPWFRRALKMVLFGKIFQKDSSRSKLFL

| Compound | Ki (mouse TAAR1) | Ki (rat TAAR1) |
| --- | --- | --- |
| N#Cc1ccc(F)c(-c2cc(C(=O)Nc3ccc([C@H]4CNCCO4)cc3)n[nH]2)c1 [Example 28, (S)-5-(5-cyano-2-fluorophenyl)-N-(4-(morpholin-2-yl)phenyl)-1H-pyrazole-3-carboxamide hydrochloride] | 0.0043 µM | 0.0129 µM |
| Cn1nc(-c2cccc(OC(F)F)c2)cc1C(=O)Nc1ccc([C@H]2CNCCO2)cc1 [Example 44, (S)-3-(3-(Difluoromethoxy)phenyl)-1-methyl-N-(4-(morpholin-2-yl)phenyl)-1H-pyrazole-5-carboxamide hydrochloride] | 0.0663 µM | 0.0262 µM |
| N#Cc1cc(-c2cc(C(=O)Nc3ccc([C@H]4CNCCO4)cc3)[nH]n2)ccc1F [Example 39, (S)-5-(3-Cyano-4-fluorophenyl)-N-(4-(morpholin-2-yl)phenyl)-1H-pyrazole-3-carboxamide hydrochloride] | 0.0014 µM | 0.003 µM |
| N#Cc1ccc(-n2ccc(C(=O)Nc3ccc([C@H]4CNCCO4)cc3)n2)cc1 [Example 34, (S)-1-(4-Cyanophenyl)-N-(4-(morpholin-2-yl)phenyl)-1H-pyrazole-3-carboxamide hydrochloride] | 0.0037 µM | 0.0092 µM |
| O=C(Nc1ccc([C@H]2CNCCO2)cc1)c1cc(-c2ccc(Cl)cc2)n[nH]1 [Example 14, (S)-3-(4-chlorophenyl)-N-(4-(morpholin-2-yl)phenyl)-1H-pyrazole-5-carboxamide hydrochloride] | 0.0017 µM | 0.0028 µM |
| O=C(Nc1ccc([C@H]2CNCCO2)cc1)c1ccn(-c2ncc(C(F)(F)F)cn2)n1 [Example 47, (S)—N-(4-(Morpholin-2-yl)phenyl)-1-(5-(trifluoromethyl)pyrimidin-2-yl)-1H-pyrazole-3-carboxamide hydrochloride] | 0.0198 µM | 0.0196 µM |
| N#Cc1cccc(-c2cc(C(=O)Nc3ccc([C@H]4CCCNC4)cc3)[nH]n2)c1 [Example 37, (R)-3-(3-Cyanophenyl)-N-(4-(piperidin-3-yl)phenyl)-1H-pyrazole-5-carboxamide hydrochloride] | 0.0017 µM | 0.0027 µM |
| O=C(Nc1ccc([C@H]2CNCCO2)cc1)c1ccn(-c2cnc(Cl)cn2)n1 [Example 50, (S)-1-(5-Chloropyrazin-2-yl)-N-(4-(morpholin-2-yl)phenyl)-1H-pyrazole-3-carboxamide hydrochloride] | 0.0027 µM | 0.0091 µM |
| O=C(Nc1ccc([C@H]2CNCCO2)cc1)c1ccn(-c2ccnc(C(F)(F)F)n2)n1 [Example 54, (S)—N-(4-(Morpholin-2-yl)phenyl)-1-(2-(trifluoromethyl)pyrimidin-4-yl)-1H-pyrazole-3-carboxamide hydrochloride] | 0.0065 µM | 0.0088 µM |
| Cn1nc(-c2ccccc2)cc1C(=O)Nc1ccc([C@@H]2CNCCO2)cc1 [Example 19, (R)-1-methyl-N-(4-(morpholin-2-yl)phenyl)-3-phenyl-1H-pyrazole-5-carboxamide hydrochloride] | 0.0079 µM | 0.0028 µM |
| N#Cc1cccc(-c2cc(C(=O)Nc3ccc([C@H]4CNCCO4)cc3)n[nH]2)c1 [Example 20, (S)-5-(3-cyanophenyl)-N-(4-(morpholin-2-yl)phenyl)-1H-pyrazole-3-carboxamide hydrochloride] | 0.0022 µM | 0.0074 µM |
| Cn1nc(-c2ccc(C#N)cc2)cc1C(=O)Nc1ccc([C@H]2CNCCO2)cc1 [Example 21, (S)-3-(4-cyanophenyl)-1-methyl-N-(4-(morpholin-2-yl)phenyl)-1H-pyrazole-5-carboxamide hydrochloride] | 0.0053 µM | 0.0055 µM |
| O=C(Nc1ccc([C@@H]2CNCCO2)cc1)c1cc(-c2cccc(Cl)c2)n[nH]1 [Example 15, (R)-3-(3-chlorophenyl)-N-(4-(morpholin-2-yl)phenyl)-1H-pyrazole-5-carboxamide hydrochloride] | 0.0006 µM | 0.0004 µM |
| Cn1nc(-c2ccc(F)cc2)cc1C(=O)Nc1ccc(C2CNCCO2)cc1 (stereo in doubt) [Example 22, (S)-3-(4-fluorophenyl)-1-methyl-N-(4-(morpholin-2-yl)phenyl)-1H-pyrazole-5-carboxamide hydrochloride] | 0.0023 µM | 0.0022 µM |
| CCn1nc(C(=O)Nc2ccc([C@H]3CNCCO3)cc2)cc1-c1cccc(OC(F)F)c1 [Example 41, (S)-5-(3-(Difluoromethoxy)phenyl)-1-ethyl-N-(4-(morpholin-2-yl)phenyl)-1H-pyrazole-3-carboxamide hydrochloride] | 0.0025 µM | 0.0016 µM |
| Cn1nc(-c2cccc(Cl)c2)cc1C(=O)Nc1ccc([C@H]2CNCCO2)cc1 [Example 17, (S)-3-(3-chlorophenyl)-1-methyl-N-(4-(morpholin-2-yl)phenyl)-1H-pyrazole-5-carboxamide hydrochloride] | 0.0016 µM | 0.0024 µM |
| Cn1nc(-c2ccccc2)cc1C(=O)Nc1ccc([C@H]2CNCCO2)cc1 [Example 5, (S)-1-methyl-N-(4-(morpholin-2-yl)phenyl)-3-phenyl-1H-pyrazole-5-carboxamide hydrochloride] | 0.0072 µM | 0.0045 µM |
| Cc1c(C(=O)Nc2ccc([C@H]3CNCCO3)cc2)n[nH]c1-c1cccc(C#N)c1 [Example 27, (S)-5-(3-cyanophenyl)-4-methyl-N-(4-(morpholin-2-yl)phenyl)-1H-pyrazole-3-carboxamide hydrochloride] | 0.0021 µM | 0.0135 µM |
| Cc1c(-c2ccccc2)n[nH]c1C(=O)Nc1ccc([C@H]2CNCCO2)cc1 [Example 6, (S)-4-methyl-N-(4-(morpholin-2-yl)phenyl)-3-phenyl-1H-pyrazole-5-carboxamide hydrochloride] | 0.0016 µM | 0.008 µM |
| N#Cc1cnc(-n2ccc(C(=O)Nc3ccc([C@H]4CNCCO4)cc3)n2)cn1 [Example 53, (S)-1-(5-Cyanopyrazin-2-yl)-N-(4-(morpholin-2-yl)phenyl)-1H-pyrazole-3-carboxamide hydrochloride] | 0.011 µM | 0.0298 µM |
